Results: patent US9243035B2, “Peptides effective in the treatment of conditions requiring the removal or destruction of cells” (NYMOX CORPORATION, priority 2013, dated 2016)
No end group written: not given here.

Experiments:
[1] = test system: tissue at sites of injection (liver, prostate, extremity skeletal muscle); assay: Injection of peptide into liver, prostate and extremity skeletal muscle of rats, histopathology and prostate volume at 72 hours; assay type: in vivo, Sprague-Dawley male rats; design: key to Histological Changes of Cell Death at 72 Hours: −: Absent; +: Present, Minimal; ++: Present, Moderate; +++: Present, Moderate and Diffuse; ++++: Present, Diffuse and Extensive; details: rat; for reduction in prostate volume compared to controls: 100 to 400 μL of 1 mg/mL in saline, sacrificed at 72 hours, average; for Histological Changes of Cell Death at 72 Hours: 72 hours after injection; for histopathological effect on tissue at sites of injection: liver, prostate, muscle, 72 hours
Experimental: After open laparotomy under general anesthesia, 8 normal 3 month old Sprague-Dawley male rats were injected in liver and in prostate, and in extremity skeletal muscle, with peptide NYMAP1385 in saline in quantities of 100 to 400 μL at a concentration of 1 mg/mL delivered from plastic syringes through stainless steel 26 gauge needles.
The individual foci of infiltration were excised, fixed in 10% formalin, embedded in paraffin, and stained and examined by standard histopathological methods. For each animal the entire prostate gland was embedded and sectioned. All stained sections were examined histologically and measured. For each prostate at least 4 histological sections were examined, and for each histological section two cross-sectional diameters (D) at 90° from each other were measured (total of ≧4 measurements per prostate). The mean diameter from these measurements for each prostate was used to estimate volume according to V=4/3*π(D/2)^3 […]
(§1) Histological changes were assessed on the following scale: −Absent • +Present, Minimal • ++Present, Moderate • +++Present, Moderate and Diffuse • ++++Present, Diffuse and Extensive

[2] = test system: rat prostate; assay: Intraprostatic infusion of peptide in rats, histology and prostate volume after 7 days; assay type: in vivo, Sprague-Dawley rats; design: key to Histological Changes of Cell Death at 7 Days: −: Absent; +: Present, Minimal; ++: Present, Moderate; +++: Present, Moderate and Diffuse; ++++: Present, Diffuse and Extensive; details: for histological effect on prostate at sites of injection: rat prostate, 7 days; for Histological Changes of Cell Death at 7 Days / reduction in prostate volume compared to controls: rat; for Histological Changes of Cell Death at 7 Days: 7 days after intraprostatic injection; for reduction in prostate volume compared to controls: intraprostatic, 300 μl of 1 mg/mL in PBS pH 7.4, sacrificed after 7 days, average
Experimental: Seven normal male 300 gram weight Sprague-Dawley rats were given general anesthesia and given peptide NYMAP1385 by intraprostatic infusion. The injections consisted of 300 μl of peptide NYMAP1385 1 mg/mL in PBS pH 7.4. […] Rats were painlessly sacrificed after 7 days. Prostate glands were dissected, fixed in 10% buffered formalin for 24 hours, embedded in paraffin, sectioned, and stained with H & E. For each animal the entire prostate gland was embedded and sectioned. All stained sections were examined histologically. For each animal the entire prostate gland was embedded and sectioned. All stained sections were examined histologically and measured. For each prostate at least 2 histological sections were examined, and for each histological section two cross-sectional diameters (D) at 90° from each other were measured (total of ≧4 measurements per prostate). The mean diameter from these measurements for each prostate was used to estimate volume according to V=4/3*π*(D/2)^3
Eight normal male 300 gram Sprague-Dawley rats were injected in the prostate as in the above Example 2, except they were injected with peptide NYMAP13134. Rats were painlessly sacrificed after 7 days and their prostate glands were examined as in Example 2. For each animal the entire prostate gland was embedded and sectioned. All stained sections were examined histologically and measured. For each prostate at least 2 histological sections were examined, and for each histological section two cross-sectional diameters (D) at 90° from each other were measured (total of ≧4 measurements per prostate). The mean diameter from these measurements for each prostate was used to estimate volume according to V=4/3*π*(D/2)^3
as §1

Row | Sequence | reduction in prostate volume compared to controls [1] [%] | Histological Changes of Cell Death at 72 Hours [1] | histopathological effect on tissue at sites of injection [1] | histological effect on prostate at sites of injection [2] | Histological Changes of Cell Death at 7 Days [2] | reduction in prostate volume compared to controls [2] [%]
1 | FHDLKKHCIK [NYMAP13134] | 72.5 | +++ | cell death and necrosis of tissue at the injection sites | significant cell loss and atrophy in the prostate | ++++ | 75.2
2 | IDLLQGRTRNRC [NYMAP1385] | 57.8 | ++++ | variable amounts of apoptosis and necrosis of tissue at the injection sites | necrosis of tissue at the injection sites with loss of glandular epithelium, flattening and atrophy | ++ | 44.8
